Patent US20090238852A1, “METHODS FOR CONTROLLING INTRACELLULAR CALCIUM LEVELS ASSOCIATED WITH AN ISCHEMIC EVENT” (University of Utah Research Foundation, priority 2008, published 2009)

Key:
[1] = system: blood coagulation (aPTT, ACT); test: Phase I bolus plus 12 hour infusion study: coagulation tests (aPTT, ACT); type: in vivo, human; details: all dosing regimens; FIG. 20
Procedure: A study was performed in twenty-four (24) healthy adult subjects to assess the effects of a bolus dose and 12 hour infusion of 2-O, 3-O desulfated heparin. The study was a Phase I, randomized, double-blind, dose escalation study with single-day treatment periods. Subjects were males between the ages of 18 and 45, and were normal in body weight. They all had normal coagulation function and hemoglobin values at baseline. […] Eighteen (18) subjects were randomized to receive ODSH and six (6) subjects were randomized to receive placebo. Subjects received either ODSH or placebo as described below in Table 13.
For each subject, ODSH as a 50 mg/ml formulation was diluted with normal saline and administered as a bolus infused over 15 minutes containing the calculated amount of ODSH the subject was to receive, followed by a constant infusion for 12 hours of ODSH diluted in saline. Placebo consisted of 50 mL of normal saline infused over 15 minutes, followed by normal saline infused for 12 hours. Immediately before infusion and after the start of each infusion, blood was drawn at periodic times (over a total 24 hour period) to monitor the effect of infusion on the following laboratory studies: activated partial thromboplastin time (aPTT); prothrombin time (PT); activated clotting time (ACT); and ODSH plasma level.

[2] = system: pigs, 75 min LAD balloon occlusion and 3 h reperfusion; test: Closed chest porcine model of cardiac ischemia/reperfusion: infarct size (NEC/AAR); type: in vivo, pig; details: repeated at 90 min reperfusion
Excerpt: To study the utility of 2-O, 3-O desulfated heparin (ODSH) in reducing ischemic tissue injury from injurious Ca^++ overload, a closed chest porcine model of cardiac ischemia was used. The study was designed to determine if previous findings indicating the protective effect of ODSH in reducing myocardial infarction reperfusion injury in open chest dogs were reproducible in an animal model of ischemia/reperfusion injury more relevant to humans. […] Yorkshire-cross pigs (Palmetto Research Swine, Reevesville, S.C.) of either sex, weighing 25-35 kg, were used for the experiment was employed. Animals were premedicated with an intramuscular injection of ketamine (30 mg/kg), acepromazine (1.1 mg/kg), and atropine (0.05 mg/kg). Pigs were induced with an IV injection of thiopental (10 mg/kg) and maintained with continuous inhalation of isoflurane (1-1.5%). Aspirin (81 mg) was administered by IV prior to the experiment.
Arterial access was achieved via bilateral femoral artery cut-downs for the insertion of 8F sheaths. Central venous and carotid access was achieved via a neck incision to expose the external jugular vein and common carotid artery. […] Baseline cardiodynamic and hemodynamic data were measured using a solid state transducer-tipped catheter in the left ventricle (Millar Instruments, Houston, Tex.) to measure left ventricular pressure, and a fluid-filled transducer connected to the side port of the femoral artery sheath to measure peripheral arterial pressure. Approximately 3-4 million neutron-activated microspheres (BioPhysics Assay Laboratory, Inc, Worcester, Ma) (15 μm) were delivered through a pig-tail catheter into the left ventricle over a 30 second period, to quantify regional myocardial blood flow (RMBF). […] Balloon occlusion time was 75 minutes with coronary occlusion confirmed by contrast angiography, ST segment changes on electrocardiography, and quantitatively confirmed by microspheres delivered at the end of ischemia, as described above. […]

[3] = system: blood coagulation (aPTT, PT, ACT); test: Phase I single IV bolus study: coagulation tests (aPTT, PT, ACT); type: in vivo, human
Procedure: A study was performed in 38 volunteer human subjects to assess the safety of escalating bolus doses of 2-O, 3-O desulfated heparin (ODSH). The study was a Phase I, randomized, double-blind, dose-escalation study with a single-day treatment period. Subjects were between the ages of 18 and 45, were not pregnant, and were normal in body weight. They all had normal coagulation function and hemoglobin values at baseline.
Two subjects also received an injection of fully anticoagulated unfractionated heparin for comparison. ODSH dose groups were run in a series, and safety and tolerance data were evaluated prior to the start of the next dose level (4, 8 12, 16 and 20 mg/kg bolus intravenous doses). Twenty eight (28) subjects randomly received ODSH and 9 subjects were randomized to receive placebo, with an additional two subjects receiving commercially available unfractionated heparin.
For each bolus dose, ODSH as a 50 mg/mL formulation was diluted with normal saline and a total volume of 50 ml was infused over 15 minutes containing the calculated amount of ODSH the subject was to receive. Placebo consisted of 50 mL of normal saline infused over 15 minutes. For subjects receiving heparin, 5,000 units (approximately 0.5 mg/kg) of heparin was diluted into 50 ml of normal saline and infused over 15 minutes.
Immediately before infusion and beginning 7 minutes after the start of each infusion, blood was drawn at periodic times for 24 hours to monitor the effect of infusion on the following laboratory studies: activated partial thromboplastin time (aPTT); prothrombin time (PT); activated clotting time (ACT); and ODSH plasma level. Serum chemistries and a complete blood count were checked immediately before infusion and at eight (8) and twenty-four (24) hours later. Using values for aPTT and ODSH levels, pharmacokinetic parameters were calculated by noncompartmental methods using a commercial software program (PhAST 2.3-001). […]

2-O, 3-O desulfated heparin [ODSH]
ACT increases [1]: ACT increases providing adequate therapeutic anticoagulation necessary for the cardiac catheterization laboratory were observed in all dosing regimens
infarct size (NEC/AAR) compared to control ([2]; ODSH 5 mg/kg IV bolus 2 min before balloon deflation): No significant reduction in infarct size
infarct size (NEC/AAR) relative to control ([2]; ODSH 15 mg/kg IV bolus 2 min before balloon deflation): significant infarct size reduction
infarct size (NEC/AAR) relative to control ([2]; ODSH 45 mg/kg IV bolus 2 min before balloon deflation): significant infarct size reduction
PT ([3]; IV bolus 4 to 20 mg/kg): increased in a dose-dependent manner
change from baseline in aPTT ([3]; IV bolus 4 to 20 mg/kg, FIG. 16): rapid increase in aPTT over the infusion period in a dose-dependent fashion
mean ACT value at 15 minutes ([3]; ODSH 20 mg/kg IV bolus): 207 s
change from baseline in ACT ([3]; bolus doses of 12-20 mg/kg, FIG. 17): Therapeutic increases in the ACT
